# Data taken from ChEMBL document CHEMBL1201862, “PubChem BioAssay data set” (2004).
# Active and inactive are the calls of the source.
# Columns and labels:
# [1] = biological target: Peroxisome proliferator-activated receptor gamma/Nuclear receptor coactivator 1 (Homo sapiens, UniProt P37231); assay type: functional;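 further: agonist potency as compounds enhance coactivator SRC-1 recruitment to PPARgamma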
# Cytochrome P450 3A4 = Cytochrome P450 3A4 (Homo sapiens, UniProt P08684);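 further: CYP3A4 tested as one member of a cytochrome P450 panel screen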
# Cytochrome P450 2C9 = Cytochrome P450 2C9 (Homo sapiens, UniProt P11712)
# Cytochrome P450 2D6 = Cytochrome P450 2D6 (Homo sapiens, UniProt P10635);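 further: CYP2D6 member of a cytochrome P450 panel assay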
# [2] = biological target: Peroxisome proliferator-activated receptor gamma/Nuclear receptor coactivator 3 (Homo sapiens, UniProt P37231); assay type: functional;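 further: agonist potency for raising coactivator recruitment to the receptor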
# Peroxisome proliferator-activated receptor gamma/Nuclear receptor coactivator 3, sequence (P37231 whole entry): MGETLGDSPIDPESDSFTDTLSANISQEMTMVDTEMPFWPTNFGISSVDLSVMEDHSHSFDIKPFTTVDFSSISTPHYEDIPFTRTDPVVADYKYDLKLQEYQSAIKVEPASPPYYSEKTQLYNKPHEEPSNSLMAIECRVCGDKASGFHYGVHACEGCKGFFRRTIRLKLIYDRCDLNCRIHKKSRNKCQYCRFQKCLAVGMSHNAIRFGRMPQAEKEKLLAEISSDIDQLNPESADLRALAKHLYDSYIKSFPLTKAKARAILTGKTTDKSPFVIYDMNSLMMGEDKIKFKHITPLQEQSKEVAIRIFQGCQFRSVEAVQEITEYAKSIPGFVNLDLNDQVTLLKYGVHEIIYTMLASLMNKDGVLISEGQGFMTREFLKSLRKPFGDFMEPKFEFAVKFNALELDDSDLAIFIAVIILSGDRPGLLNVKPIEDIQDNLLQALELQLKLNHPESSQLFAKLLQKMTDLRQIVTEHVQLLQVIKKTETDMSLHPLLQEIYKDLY
# Peroxisome proliferator-activated receptor gamma/Nuclear receptor coactivator 3, sequence (Q9Y6Q9 whole entry, further chain): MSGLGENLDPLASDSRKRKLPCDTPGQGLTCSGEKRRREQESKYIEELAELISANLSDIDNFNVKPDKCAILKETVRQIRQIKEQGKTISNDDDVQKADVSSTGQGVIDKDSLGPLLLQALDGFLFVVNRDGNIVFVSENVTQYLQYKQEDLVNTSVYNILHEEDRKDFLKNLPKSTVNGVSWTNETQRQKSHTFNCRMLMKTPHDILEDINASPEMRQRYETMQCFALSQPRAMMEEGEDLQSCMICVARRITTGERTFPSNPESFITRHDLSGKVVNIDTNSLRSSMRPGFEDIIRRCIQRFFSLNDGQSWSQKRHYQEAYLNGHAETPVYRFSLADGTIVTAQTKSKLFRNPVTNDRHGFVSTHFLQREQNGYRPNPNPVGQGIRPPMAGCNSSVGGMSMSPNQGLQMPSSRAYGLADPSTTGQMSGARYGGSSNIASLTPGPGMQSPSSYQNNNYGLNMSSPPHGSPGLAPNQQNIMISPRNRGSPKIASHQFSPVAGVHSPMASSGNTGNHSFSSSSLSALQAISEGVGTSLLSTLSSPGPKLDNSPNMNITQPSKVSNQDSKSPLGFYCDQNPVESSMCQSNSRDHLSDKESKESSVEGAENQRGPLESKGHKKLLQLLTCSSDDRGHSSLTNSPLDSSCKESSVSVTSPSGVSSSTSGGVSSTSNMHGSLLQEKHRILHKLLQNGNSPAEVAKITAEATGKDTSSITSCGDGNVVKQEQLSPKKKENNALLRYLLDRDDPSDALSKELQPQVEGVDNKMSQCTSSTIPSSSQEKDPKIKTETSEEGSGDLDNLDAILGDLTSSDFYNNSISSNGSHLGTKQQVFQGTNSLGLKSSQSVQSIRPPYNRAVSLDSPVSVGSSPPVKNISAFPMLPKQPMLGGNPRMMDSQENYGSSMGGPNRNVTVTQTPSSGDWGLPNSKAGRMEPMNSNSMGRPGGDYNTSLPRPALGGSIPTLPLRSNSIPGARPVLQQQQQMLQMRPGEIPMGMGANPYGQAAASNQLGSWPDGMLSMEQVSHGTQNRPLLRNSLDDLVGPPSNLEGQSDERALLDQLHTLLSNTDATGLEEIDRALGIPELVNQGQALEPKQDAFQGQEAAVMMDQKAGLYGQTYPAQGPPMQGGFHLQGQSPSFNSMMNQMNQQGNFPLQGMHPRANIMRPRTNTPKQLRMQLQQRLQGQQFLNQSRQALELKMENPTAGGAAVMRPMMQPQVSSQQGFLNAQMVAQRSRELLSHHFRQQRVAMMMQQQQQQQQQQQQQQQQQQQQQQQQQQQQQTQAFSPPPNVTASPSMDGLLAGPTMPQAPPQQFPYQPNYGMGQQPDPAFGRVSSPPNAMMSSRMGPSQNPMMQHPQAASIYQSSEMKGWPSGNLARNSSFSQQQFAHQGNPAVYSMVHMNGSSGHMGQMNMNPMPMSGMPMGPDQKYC
# [3] = biological target: Peroxisome proliferator-activated receptor gamma/Nuclear receptor coactivator 2 (Homo sapiens, UniProt P37231); assay type: functional;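 further: agonist potency for raising coactivator recruitment to the receptor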
# Hexokinase-1 = biological target: T1, Hexokinase-1 (Homo sapiens, UniProt P19367); test: HK1 enzyme inhibition by HKDC1 hits, SAR follow-up, selectivity assay for HKDC1 inhibitor project, biochemical, set 2, resazurin fluorescence coupled readout (AID 588356); assay type: functional
# T1 sequence (P19367 whole entry): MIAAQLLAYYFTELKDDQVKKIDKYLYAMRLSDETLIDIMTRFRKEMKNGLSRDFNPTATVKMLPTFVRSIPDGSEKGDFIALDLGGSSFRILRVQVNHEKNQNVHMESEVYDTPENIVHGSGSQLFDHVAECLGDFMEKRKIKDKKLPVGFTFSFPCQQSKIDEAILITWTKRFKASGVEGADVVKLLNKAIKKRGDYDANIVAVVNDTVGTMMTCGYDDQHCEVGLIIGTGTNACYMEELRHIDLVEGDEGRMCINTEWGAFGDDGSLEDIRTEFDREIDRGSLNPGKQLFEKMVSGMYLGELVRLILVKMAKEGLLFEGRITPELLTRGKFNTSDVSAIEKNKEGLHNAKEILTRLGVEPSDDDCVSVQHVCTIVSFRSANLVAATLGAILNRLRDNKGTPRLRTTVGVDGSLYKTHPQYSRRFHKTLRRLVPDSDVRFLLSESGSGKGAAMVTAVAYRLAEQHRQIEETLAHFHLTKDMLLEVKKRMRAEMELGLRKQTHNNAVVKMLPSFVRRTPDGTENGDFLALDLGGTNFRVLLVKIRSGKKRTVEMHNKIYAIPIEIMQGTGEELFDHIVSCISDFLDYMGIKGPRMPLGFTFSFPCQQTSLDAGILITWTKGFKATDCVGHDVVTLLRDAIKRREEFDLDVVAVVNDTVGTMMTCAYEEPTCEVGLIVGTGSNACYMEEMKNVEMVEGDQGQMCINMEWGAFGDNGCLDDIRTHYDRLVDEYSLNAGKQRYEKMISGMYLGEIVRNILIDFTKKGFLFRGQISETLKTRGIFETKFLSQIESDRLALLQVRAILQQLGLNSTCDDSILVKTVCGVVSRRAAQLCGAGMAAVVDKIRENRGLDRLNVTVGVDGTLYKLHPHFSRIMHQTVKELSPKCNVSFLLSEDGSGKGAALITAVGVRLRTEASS
# Hexokinase HKDC1 = biological target: T2, Hexokinase HKDC1 (Homo sapiens, UniProt Q2TB90); test: HKDC1 hexokinase inhibitors, SAR follow-up, biochemical, set 2 (AID 588355); assay type: functional
# T2 sequence (Q2TB90 whole entry): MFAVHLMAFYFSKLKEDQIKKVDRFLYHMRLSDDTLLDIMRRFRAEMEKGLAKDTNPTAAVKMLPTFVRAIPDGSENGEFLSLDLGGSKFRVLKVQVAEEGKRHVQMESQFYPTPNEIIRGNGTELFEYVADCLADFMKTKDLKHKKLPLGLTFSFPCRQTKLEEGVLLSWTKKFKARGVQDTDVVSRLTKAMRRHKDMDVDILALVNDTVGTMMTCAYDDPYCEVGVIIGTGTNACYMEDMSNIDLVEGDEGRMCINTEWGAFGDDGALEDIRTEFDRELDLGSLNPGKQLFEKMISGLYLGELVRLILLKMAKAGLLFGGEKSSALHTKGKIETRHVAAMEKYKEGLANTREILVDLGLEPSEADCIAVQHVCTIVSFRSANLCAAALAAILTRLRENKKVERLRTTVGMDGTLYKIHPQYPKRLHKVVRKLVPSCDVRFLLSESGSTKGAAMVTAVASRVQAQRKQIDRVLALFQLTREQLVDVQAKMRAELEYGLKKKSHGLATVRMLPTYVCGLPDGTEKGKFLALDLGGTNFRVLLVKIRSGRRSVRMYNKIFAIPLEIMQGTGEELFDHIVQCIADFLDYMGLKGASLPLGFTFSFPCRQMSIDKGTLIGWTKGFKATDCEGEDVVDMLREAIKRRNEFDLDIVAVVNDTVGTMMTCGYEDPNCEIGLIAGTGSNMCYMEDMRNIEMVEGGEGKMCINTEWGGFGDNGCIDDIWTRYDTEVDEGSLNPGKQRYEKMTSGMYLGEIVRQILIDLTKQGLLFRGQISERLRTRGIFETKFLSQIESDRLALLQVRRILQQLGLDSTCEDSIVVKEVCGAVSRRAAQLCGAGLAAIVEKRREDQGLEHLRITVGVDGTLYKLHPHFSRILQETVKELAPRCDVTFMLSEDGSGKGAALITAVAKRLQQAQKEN
# Escherichia coli = test: microbe, parasite or virus in culture
# [4] = growth suppression of PTEN-null colon cells, dose response, cell-based, HCT116 PTEN knockout (AID 1047); assay type: functional;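 further: HCT116 colon tumor cells with PTEN knocked out; cells exposed to compound for 60 hours before readout; potency for loss of cell viability measured by luminescence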
# [5] = Luminescence Cell-Based Dose Retest to Confirm Inhibitors of Cancer Stem Cells. [Related pubchem assays (depositor defined):AID2717, AID2721]; assay type: functional; details: Homo sapiens
# [6] = cytotoxicity in HMLE control line with eGFP shRNA, dose response, counter-screen for HMLE_sh_ECad selective toxicity project, cell-based, HMLE_sh_eGFP, luminescence (AID 463074); assay type: functional, Homo sapiens;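 further: HMLE human mammary epithelial cells expressing control shRNA against eGFP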
# [7] = growth suppression of beta-catenin-knockout colon cells, dose response, cell-based, HCT116, human colon tumor (AID 1045); assay type: functional;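 further: HCT116 colon tumor cells with beta catenin knocked out; cells exposed to compound for 60 hours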
# [8] = insulin promoter down-regulators in MIN6 cells, imaging, high-content screening, mouse beta cells (AID 1628); assay type: functional
# [9] = cytotoxicity in MIN6 insulinoma cells, dose response, cytotoxicity control, cell-based, mouse insulinoma (AID 2122); assay type: functional;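 further: confirmatory high-throughput counterscreen run to flag cytotoxic compounds; mouse MIN-6 beta cells carrying an insulin promoter eGFP reporter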
# [10] = biological target: Dual specificity protein kinase CLK1 (Homo sapiens, UniProt P49759); test: CLK1 kinase inhibitors, off-target check, dose response, selectivity assay for Dyrk1A inhibitor project, biochemical, cherry-picked samples (AID 588811)
# [11] = inhibitors of SNCA 5'UTR-driven reporter translation, confirmation, H4 neuroglioma cells, luminescence (AID 1988); assay type: functional, cell-based
# [12] = cytotoxicity toward DRD oncogenic fibroblasts, dose response, cell-based, non-viral oncogenic, luminescence (AID 1934); assay type: functional; details: Homo sapiens
# BJ [13] = test: cells; assay type: functional, cell-based; details: Homo sapiens
# [14] = nonselective inhibitors of cellular cAMP signaling, dose response, counter-screen for MC4R biased antagonist project, cell-based, TR-FRET cAMP detection (AID 602305); assay type: functional;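 further: U2OS cells stimulated with forskolin near its EC80 as the cAMP inducer; potency is for inhibition of forskolin-stimulated cAMP signaling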
# [15] = Luminescence Cell-Based Dose Response HTS to Identify Inhibitors of 5'UTR Stem-Loop Driven Prion Protein mRNA Translation in H4 Neuroglioblastoma Cells. [Related pubchem assays: 1827 (Project Summary), 1813 (Primary HTS)]; assay type: functional
# Melanocortin receptor 4 = Melanocortin receptor 4 (Homo sapiens, UniProt P32245); test: MC4R antagonist potency on cAMP, dose response, cell-based, TR-FRET, biased antagonists (AID 602298); assay type: functional;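 further: antagonist potency against agonist-stimulated cAMP production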
# [16] = biological target: T3, Microphthalmia-associated transcription factor (Homo sapiens, UniProt O75030); test: TRPM1 promoter luciferase signal decrease, dose response, MITF inhibitor project, cell-based, SK-MEL-5, cherry-picked, set 3 (AID 493073); assay type: functional
# T3 sequence (O75030 whole entry): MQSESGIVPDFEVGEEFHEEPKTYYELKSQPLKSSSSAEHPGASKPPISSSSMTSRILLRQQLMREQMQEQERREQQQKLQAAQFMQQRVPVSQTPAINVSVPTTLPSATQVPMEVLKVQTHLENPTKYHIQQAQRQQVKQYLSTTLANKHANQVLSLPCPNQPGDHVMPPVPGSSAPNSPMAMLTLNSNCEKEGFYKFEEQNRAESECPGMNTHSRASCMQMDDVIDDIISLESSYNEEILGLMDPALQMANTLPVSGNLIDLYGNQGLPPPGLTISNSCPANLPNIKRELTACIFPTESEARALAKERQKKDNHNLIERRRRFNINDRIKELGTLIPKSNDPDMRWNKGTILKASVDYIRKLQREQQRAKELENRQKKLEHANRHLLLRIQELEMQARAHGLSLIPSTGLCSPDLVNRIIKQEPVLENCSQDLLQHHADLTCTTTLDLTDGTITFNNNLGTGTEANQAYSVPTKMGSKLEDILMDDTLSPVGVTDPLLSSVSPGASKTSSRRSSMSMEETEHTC
# BJ [17] = test: cytotoxicity toward BJ-TERT-LT-ST fibroblasts, dose response, cell-based, RAS-independent, luminescence (AID 1935); assay type: functional; details: Homo sapiens;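 further: BJ fibroblasts immortalized with TERT plus LT and ST oncogenes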
# A-375 = test: A375 melanoma cell viability reduction, dose response, counter-screen for MITF modulator project, cherry-pick samples, set 2 (AID 540335); assay type: functional, cell-based; details: Homo sapiens
# [18] = inhibitors of firefly luciferase expression or activity, dose response, H4 neuroglioma cells, luminescence (AID 1990); assay type: functional, cell-based
# BJ [19] = test: cytotoxicity toward BJ-TERT fibroblasts, dose response, cell-based, RAS-independent, luminescence (AID 1933); assay type: functional; details: Homo sapiens
# [20] = biological target: Short transient receptor potential channel 6 (Mus musculus, UniProt Q61143); test: TRPC6 inhibition potency of TRPC4 inhibitor analogs, dose response, selectivity assay for selective TRPC4 inhibitor project, HEK293 cells, membrane potential dye, IC50 (AID 492987); assay type: functional, cell-based
# Short transient receptor potential channel 6, sequence (Q61143 whole entry): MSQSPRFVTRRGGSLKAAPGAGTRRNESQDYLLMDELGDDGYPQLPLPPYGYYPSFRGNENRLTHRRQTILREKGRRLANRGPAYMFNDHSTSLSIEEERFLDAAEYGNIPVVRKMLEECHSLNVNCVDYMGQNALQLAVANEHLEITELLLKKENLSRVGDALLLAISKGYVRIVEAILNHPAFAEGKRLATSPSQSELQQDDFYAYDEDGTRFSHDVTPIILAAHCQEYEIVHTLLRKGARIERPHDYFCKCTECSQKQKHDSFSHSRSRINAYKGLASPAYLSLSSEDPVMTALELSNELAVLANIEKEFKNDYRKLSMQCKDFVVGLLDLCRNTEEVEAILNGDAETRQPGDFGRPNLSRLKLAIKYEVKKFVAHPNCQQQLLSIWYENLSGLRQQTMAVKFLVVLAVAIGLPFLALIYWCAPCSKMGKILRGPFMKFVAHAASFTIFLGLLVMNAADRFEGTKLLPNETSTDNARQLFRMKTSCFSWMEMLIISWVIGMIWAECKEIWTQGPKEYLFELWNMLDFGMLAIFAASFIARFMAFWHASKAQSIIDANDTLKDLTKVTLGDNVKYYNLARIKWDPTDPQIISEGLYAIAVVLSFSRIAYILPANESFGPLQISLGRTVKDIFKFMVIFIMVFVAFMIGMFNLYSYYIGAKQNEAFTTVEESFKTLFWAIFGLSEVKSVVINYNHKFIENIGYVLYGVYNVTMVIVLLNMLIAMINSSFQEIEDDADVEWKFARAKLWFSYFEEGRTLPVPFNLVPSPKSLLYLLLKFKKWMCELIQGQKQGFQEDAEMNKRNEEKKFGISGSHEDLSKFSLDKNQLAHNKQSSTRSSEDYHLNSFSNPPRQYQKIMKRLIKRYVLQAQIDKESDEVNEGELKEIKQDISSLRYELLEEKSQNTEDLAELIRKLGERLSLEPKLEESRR
# [21] = biological target: T4, Short transient receptor potential channel 4 (Mus musculus, UniProt Q9QUQ5); test: SAR Analysis for the identification of selective inhibits of the transient receptor potential cation channel C4 (TRPC4): Automated Electrophysiology. [Related pubchem assays (depositor defined):AID2256]; assay type: functional
# T4 sequence (Q9QUQ5 whole entry): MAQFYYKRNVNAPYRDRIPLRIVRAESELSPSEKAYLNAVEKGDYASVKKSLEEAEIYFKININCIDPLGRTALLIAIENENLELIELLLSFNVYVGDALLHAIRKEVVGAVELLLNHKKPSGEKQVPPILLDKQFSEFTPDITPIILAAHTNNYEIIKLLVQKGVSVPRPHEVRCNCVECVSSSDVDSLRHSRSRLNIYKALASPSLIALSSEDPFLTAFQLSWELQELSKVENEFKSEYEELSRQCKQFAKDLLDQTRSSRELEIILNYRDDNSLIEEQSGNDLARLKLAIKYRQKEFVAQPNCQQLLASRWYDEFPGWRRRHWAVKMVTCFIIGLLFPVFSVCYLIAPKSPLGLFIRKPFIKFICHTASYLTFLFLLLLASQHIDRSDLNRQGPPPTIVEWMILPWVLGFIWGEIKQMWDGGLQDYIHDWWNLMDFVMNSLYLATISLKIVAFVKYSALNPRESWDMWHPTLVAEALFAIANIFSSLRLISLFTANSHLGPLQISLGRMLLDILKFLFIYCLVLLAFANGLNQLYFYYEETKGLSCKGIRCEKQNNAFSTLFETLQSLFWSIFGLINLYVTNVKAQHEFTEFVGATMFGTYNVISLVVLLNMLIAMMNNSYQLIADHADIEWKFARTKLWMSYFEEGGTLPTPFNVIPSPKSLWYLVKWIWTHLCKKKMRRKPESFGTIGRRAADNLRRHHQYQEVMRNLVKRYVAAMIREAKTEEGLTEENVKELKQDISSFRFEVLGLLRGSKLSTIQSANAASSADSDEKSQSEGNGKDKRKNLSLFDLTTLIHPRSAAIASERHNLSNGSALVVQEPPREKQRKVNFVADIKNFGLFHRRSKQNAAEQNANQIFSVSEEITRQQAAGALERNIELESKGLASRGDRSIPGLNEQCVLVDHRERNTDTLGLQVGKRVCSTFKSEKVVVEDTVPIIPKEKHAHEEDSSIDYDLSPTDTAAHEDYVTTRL
# [22] = biological target: T4, Short transient receptor potential channel 4; test: TRPC4 inhibitor concentration-response, dose response, cell-based, HEK293 TRPC4/mu-opioid, DAMGO stimulus, Fluo-4 (AID 492994); assay type: functional
# Peroxisome proliferator-activated receptor gamma/Nuclear receptor coactivator 1, sequence (P37231 whole entry): as the sequence (P37231 whole entry) above
# Peroxisome proliferator-activated receptor gamma/Nuclear receptor coactivator 1, sequence (Q15788 whole entry, further chain): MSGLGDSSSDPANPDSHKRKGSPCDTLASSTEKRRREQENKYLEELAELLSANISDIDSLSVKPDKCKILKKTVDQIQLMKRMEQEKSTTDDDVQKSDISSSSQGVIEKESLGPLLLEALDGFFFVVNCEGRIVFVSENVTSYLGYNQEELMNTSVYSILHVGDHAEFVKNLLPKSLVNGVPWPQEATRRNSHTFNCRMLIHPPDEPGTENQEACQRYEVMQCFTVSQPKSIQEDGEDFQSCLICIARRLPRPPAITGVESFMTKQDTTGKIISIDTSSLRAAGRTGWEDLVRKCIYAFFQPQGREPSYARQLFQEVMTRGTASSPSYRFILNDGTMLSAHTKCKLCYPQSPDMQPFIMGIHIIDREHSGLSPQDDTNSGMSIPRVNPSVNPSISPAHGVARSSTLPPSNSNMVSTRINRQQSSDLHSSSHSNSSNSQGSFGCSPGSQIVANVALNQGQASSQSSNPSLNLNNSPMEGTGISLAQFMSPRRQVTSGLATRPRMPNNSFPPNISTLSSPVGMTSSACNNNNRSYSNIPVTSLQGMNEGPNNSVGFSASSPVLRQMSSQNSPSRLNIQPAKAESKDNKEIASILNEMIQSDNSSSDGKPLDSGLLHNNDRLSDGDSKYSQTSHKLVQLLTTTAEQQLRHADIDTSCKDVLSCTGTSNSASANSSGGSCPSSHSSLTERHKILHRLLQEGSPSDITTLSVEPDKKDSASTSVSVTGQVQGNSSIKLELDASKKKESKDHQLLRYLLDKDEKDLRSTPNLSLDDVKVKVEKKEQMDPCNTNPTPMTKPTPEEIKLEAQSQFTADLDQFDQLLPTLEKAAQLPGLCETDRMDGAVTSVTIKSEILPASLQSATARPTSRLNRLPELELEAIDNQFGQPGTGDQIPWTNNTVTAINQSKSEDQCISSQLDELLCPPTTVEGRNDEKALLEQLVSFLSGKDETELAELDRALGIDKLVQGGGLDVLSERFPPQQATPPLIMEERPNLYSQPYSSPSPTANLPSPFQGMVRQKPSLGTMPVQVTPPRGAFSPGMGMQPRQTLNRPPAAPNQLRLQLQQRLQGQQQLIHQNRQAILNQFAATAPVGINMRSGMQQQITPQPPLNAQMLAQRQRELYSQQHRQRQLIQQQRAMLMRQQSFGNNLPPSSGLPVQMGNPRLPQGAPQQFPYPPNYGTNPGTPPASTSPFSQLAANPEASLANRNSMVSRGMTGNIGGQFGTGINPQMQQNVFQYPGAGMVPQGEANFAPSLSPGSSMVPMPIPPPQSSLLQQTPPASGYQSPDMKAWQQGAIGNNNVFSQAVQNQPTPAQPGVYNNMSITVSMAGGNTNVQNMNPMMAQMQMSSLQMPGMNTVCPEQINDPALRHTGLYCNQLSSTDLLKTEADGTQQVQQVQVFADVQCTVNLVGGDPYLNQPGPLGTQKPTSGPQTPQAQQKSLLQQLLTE
smiles,measurement,setting,value
c1ccc(CSc2ncnc3c2sc2nc(N4CCOCC4)c4c(c23)CCCC4)cc1,EC50,[1],> 79.4 µM (not active)
same,AC50,Cytochrome P450 3A4,inconclusive
same,AC50,Cytochrome P450 2C9,1.12 µM (inconclusive)
same,AC50,Cytochrome P450 2D6,inconclusive
same,EC50,[2],> 79.4 µM (not active)
same,EC50,[3],18.6 µM (not active)
CCc1ccc(NC2c3ccccc3C(=O)N2c2ccccc2C)cc1 (stereo unspecified),IC50,Hexokinase-1,> 80 µM (inactive)
same,IC50,Hexokinase HKDC1,> 80 µM (inactive)
COc1cc(SC)ccc1C(=O)Nc1cc(C)ccn1,AC50,Escherichia coli,31.5 µM (active)
Cc1nn(Cc2ccc(Cl)cc2)c(Cl)c1/C=N/NC(=O)CNc1ccccc1F,EC50,[4],15.8 µM (active)
same,AC50,[5],16.2 µM (active)
same,AC50,[6],24.9 µM (active)
same,EC50,[7],18 µM (active)
N=c1ccn(Cc2ccc(Cl)c(Cl)c2)cc1,IC50,[8],3.32 µM (active)
same,IC50,[9],4.07 µM (active)
Cc1nc(CN(C)c2ncnc3ccc(-c4ccc5c(c4)OCO5)cc23)cs1,AC50,[10],< 0.00195 µM (active)
O=C(/C=C/c1ccc(Cl)cc1)c1ccc([N+](=O)[O-])o1,EC50,[11],> 120 µM (not active)
same,EC50,[12],1.13 µM (inconclusive)
same,EC50,BJ [13],> 150 µM (inconclusive)
same,IC50,[14],> 64.6 µM (inactive)
same,EC50,[15],> 60 µM (not active)
same,IC50,Melanocortin receptor 4,> 64.6 µM (inactive)
same,AC50,[5],1.21 µM (active)
same,AC50,[16],5.32 µM (active)
same,EC50,BJ [17],> 150 µM (inconclusive)
same,AC50,A-375,29.9 µM (active)
same,EC50,[18],8.88 µM (active)
same,EC50,BJ [19],> 150 µM (not active)
Cc1ccc2nc(N3CCCC3)cc(C)c2c1,IC50,[20],2.03 µM (active)
same,IC50,[21],3.71 µM (active)
same,IC50,[22],2.04 µM (active)
